Values of other authors in patent US10359349B2, “Use of focused light scattering techniques in biological applications” (AIDIA INVESTMENT GROUP, INC., priority 2008, dated 2019).

Tested on: platelets
Details: platelet inhibition in arterial thrombophilic diseases; share of drug-treated patients whose platelets are not inhibited

| SMILES | treated patients who do not respond to treatment |
| --- | --- |
| COC(=O)[C@H](c1ccccc1Cl)N1CCc2sccc2C1 [Plavix, clopidogrel bisulfate] | ~29% |
| CC(=O)Oc1ccccc1C(=O)O [ASA, Aspirin] | Approximately 25% |
